Converted amounts (≈) assume the structure as drawn.
Tests used:
E. coli YHP05 strain = assay: MIC measurement to cinnamaldehyde of E. coli; type: cell-based; conditions: LB liquid medium, 37° C., 16 hrs
E. coli MG1655 strain = assay: microbe, parasite or virus in culture; conditions: Escherichia coli, MG1655, 16 h, read-out: phenol concentration at which growth was totally inhibited (MIC)
E. coli YHP05 = assay: Screening of transformed E. coli living in cinnamaldehyde MIC (artificial ncRNA expression); type: cell-based; conditions: transformed E. coli YHP05, LB medium comprising 350 ug/ml cinnamaldehyde, 1 mM IPTG, 16 hrs
Procedure: In order to develop an artificial ncRNA to make E. coli survived at 300 ug/ml of cinnamaldehyde concentration, E. coli YHP05 was transformed by the plasmid library which can express genome-originated artificial ncRNA constructed in the Example 3-5, and after transformed ˜500,000 colonies were cultured for 16 hrs, they were diluted to 1:100 and cultured for 16 hrs again in a LB medium comprising 350 ug/ml cinnamaldehyde, 1 mM IPTG, and the result was shown in FIG. 6 and table 6.

Molecule: O=CC=Cc1ccccc1 [cinnamaldehyde]
- OD600 (E. coli YHP05 strain; 100 ug/ml cinnamaldehyde): 3.08
- OD600 (E. coli YHP05 strain; 150 ug/ml cinnamaldehyde): 2.74
- OD600 (E. coli YHP05 strain; 200 ug/ml cinnamaldehyde): 2.25
- OD600 (E. coli YHP05 strain; 250 ug/ml cinnamaldehyde): 0.341
- OD600 (E. coli YHP05 strain; 300 ug/ml cinnamaldehyde): 0.091
- OD600 (E. coli YHP05 strain; 400 ug/ml cinnamaldehyde): 0.083
- OD600 (E. coli YHP05 strain; 500 ug/ml cinnamaldehyde): 0.062
- MIC (E. coli YHP05 strain; Escherichia coli, YHP05STRAIN, read-out: cinnamaldehyde concentration at which cells were not grown (MIC)): 300 µg/mL (≈ 2270 µM)

Molecule: Oc1ccccc1 [phenol]
- MIC (E. coli MG1655 strain): 20 mM (≈ 1880 µg/mL)

Molecule: clone 8: artificial ncRNA improving resistance to cinnamaldehyde, genome insert of SEQ ID NO: 19 (DNA AATCCCTCAATGATGCCTGGAATCGCTCTTTTA; expressed or natural sequence)
- OD600 (E. coli YHP05): 0.32

Molecule: clone 9: artificial ncRNA improving resistance to cinnamaldehyde, genome insert of SEQ ID NO: 20 (DNA GGCGCTGCATCCGCGTTATAGCCGCGCCCAGTATGACCGGGTAATGGA; expressed or natural sequence)
- OD600 (E. coli YHP05): 0.2403

B1: clone 6: artificial ncRNA improving resistance to cinnamaldehyde, genome insert of SEQ ID NO: 17 (nucleic acid)
DNA: TATTCATTGCTTCTACCCGTGCCTCGCTTTCTGTATTACGAAATTGTCCCAACACATGTGCCAGCCGATAAAAACCCAC
modifications: expressed or natural sequence
- OD600 (E. coli YHP05): 0.2757

B2: clone 7: artificial ncRNA improving resistance to cinnamaldehyde, genome insert of SEQ ID NO: 18 (nucleic acid)
DNA: AACGCAGGGCGTTCGAAAGCAGGTTGCTTAGCGCCCGACGCAGCATCAGCGGATCGCCCGCGACCTGACACTTGTCGCCAACAAACCGCAACTCCACGCCGCGATCTTCCGCTAACGCCTCGAAAAAATCGAACACTTTGCCGACTTCATCCGCCAG
modifications: cinnamic aldehyde_reg_06
- OD600 (E. coli YHP05): 0.411

Reference: patent US10227586B2, “Genome-originated artificial ncRNA expression library and method of preparing the same” (KOREA ADVANCED INSTITUTE OF SCIENCE AND TECHNOLOGY, priority 2016, dated 2019)
